According to ChEMBL document CHEMBL1201862, “PubChem BioAssay data set” (2004):
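Following 48 hours of exposure in 96-well plates, responses at five concentrations were used to interpolate endpoints linearly. GI50 is the concentration that inhibits growth by half.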 Active and inactive are the calls of the source. Cut-off read from the data, not from the text of the source: active = GI50 up to about 1.1 µM and inactive = higher.

How the values were obtained:
Assay in all cases: NCI tumour cell line growth inhibition, 48 h
ACHN = tested on: ACHN
SNB-75 = tested on: SNB-75
SN12C = tested on: SN12C
LOX IMVI = tested on: LOX IMVI
M14 = tested on: M14
KM-20L2 = tested on: KM-20L2
MOLT-4 = tested on: MOLT-4
SF-268 = tested on: SF-268
CCRF-CEM = tested on: CCRF-CEM
HCT-116 = tested on: HCT-116
A549 = tested on: A549
CAKI-1 = tested on: CAKI-1
UACC-257 = tested on: UACC-257
NCI-H460 = tested on: NCI-H460
HOP-92 = tested on: HOP-92
DMS-114 = tested on: DMS-114
KM12 = tested on: KM12
NCI-H226 = tested on: NCI-H226
OVCAR-4 = tested on: OVCAR-4
HT-29 = tested on: HT-29
HCC 2998 = tested on: HCC 2998
SK-OV-3 = tested on: SK-OV-3
OVCAR-3 = tested on: OVCAR-3
786-0 = tested on: 786-0
SF-295 = tested on: SF-295
OVCAR-8 = tested on: OVCAR-8
RXF 393 = tested on: RXF 393
M19-MEL = tested on: M19-MEL
UACC-62 = tested on: UACC-62
SK-MEL-5 = tested on: SK-MEL-5
NCI-H23 = tested on: NCI-H23
RXF 631 = tested on: RXF 631
K562 = tested on: K562
U-251 = tested on: U-251
HL-60 = tested on: HL-60
UO-31 = tested on: UO-31
SK-MEL-2 = tested on: SK-MEL-2
SW-620 = tested on: SW-620
SK-MEL-28 = tested on: SK-MEL-28
RPMI-8226 = tested on: RPMI-8226
HOP-62 = tested on: HOP-62
HOP-18 = tested on: HOP-18
OVCAR-5 = tested on: OVCAR-5
HCT-15 = tested on: HCT-15
Malme-3M = tested on: Malme-3M
TK-10 = tested on: TK-10
EKVX = tested on: EKVX
SR = tested on: SR
LXFL 529 = tested on: LXFL 529
NCI-H522 = tested on: NCI-H522
SF-539 = tested on: SF-539
IGROV-1 = tested on: IGROV-1
DLD-1 = tested on: DLD-1
SNB-19 = tested on: SNB-19
COLO 205 = tested on: COLO 205
SNB-78 = tested on: SNB-78
XF498 = tested on: XF498
DMS-273 = tested on: DMS-273

## COc1cc2ccc3c4cc(OC)c(OC(C)C)cc4cnc3c2cc1OC
ACHN
  GI50: > 100 µM (inactive)
SNB-75
  GI50: > 100 µM (inactive)
SN12C
  GI50: > 100 µM (inactive)
LOX IMVI
  GI50: > 100 µM (inactive)
M14
  GI50: > 100 µM (inactive)
KM-20L2
  GI50: > 100 µM (inactive)
MOLT-4
  GI50: > 100 µM (inactive)
SF-268
  GI50: > 100 µM (inactive)
CCRF-CEM
  GI50: > 100 µM (inactive)
HCT-116
  GI50: > 100 µM (inactive)
A549
  GI50: > 100 µM (inactive)
CAKI-1
  GI50: > 100 µM (inactive)
UACC-257
  GI50: > 100 µM (inactive)
NCI-H460
  GI50: > 100 µM (inactive)
HOP-92
  GI50: > 100 µM (inactive)
DMS-114
  GI50: > 100 µM (inactive)
KM12
  GI50: > 100 µM (inactive)
NCI-H226
  GI50: > 100 µM (inactive)
OVCAR-4
  GI50: > 100 µM (inactive)
HT-29
  GI50: > 100 µM (inactive)
HCC 2998
  GI50: > 100 µM (inactive)
SK-OV-3
  GI50: > 100 µM (inactive)
OVCAR-3
  GI50: > 100 µM (inactive)
786-0
  GI50: > 100 µM (inactive)
SF-295
  GI50: > 100 µM (inactive)
OVCAR-8
  GI50: > 100 µM (inactive)
RXF 393
  GI50: > 100 µM (inactive)
M19-MEL
  GI50: > 100 µM (inactive)
UACC-62
  GI50: > 100 µM (inactive)
SK-MEL-5
  GI50: > 100 µM (inactive)
NCI-H23
  GI50: > 100 µM (inactive)
RXF 631
  GI50: > 100 µM (inactive)
K562
  GI50: > 100 µM (inactive)
U-251
  GI50: > 100 µM (inactive)
HL-60
  GI50: > 100 µM (inactive)
UO-31
  GI50: > 100 µM (inactive)
SK-MEL-2
  GI50: > 100 µM (inactive)
SW-620
  GI50: > 100 µM (inactive)
SK-MEL-28
  GI50: > 100 µM (inactive)
RPMI-8226
  GI50: > 100 µM (inactive)
HOP-62
  GI50: > 100 µM (inactive)
HOP-18
  GI50: > 100 µM (inactive)
OVCAR-5
  GI50: > 100 µM (inactive)
HCT-15
  GI50: > 100 µM
Malme-3M
  GI50: > 100 µM (inactive)
TK-10
  GI50: > 100 µM (inactive)
EKVX
  GI50: > 100 µM (inactive)
SR
  GI50: > 100 µM (inactive)
LXFL 529
  GI50: > 100 µM (inactive)
NCI-H522
  GI50: > 100 µM (inactive)
SF-539
  GI50: > 100 µM (inactive)
IGROV-1
  GI50: > 100 µM (inactive)
DLD-1
  GI50: > 100 µM (inactive)
SNB-19
  GI50: > 100 µM (inactive)
COLO 205
  GI50: > 100 µM (inactive)
SNB-78
  GI50: > 100 µM (inactive)

## O=c1cccccc1NCCNc1cccccc1=O
ACHN
  GI50: > 100 µM (inactive)
SNB-75
  GI50: > 10 µM (inactive)
SN12C
  GI50: 13.6 µM (inactive)
LOX IMVI
  GI50: > 100 µM (inactive)
XF498
  GI50: > 100 µM (inactive)
M14
  GI50: > 100 µM (inactive)
KM-20L2
  GI50: > 100 µM (inactive)
MOLT-4
  GI50: > 100 µM (inactive)
SF-268
  GI50: > 100 µM (inactive)
CCRF-CEM
  GI50: > 100 µM (inactive)
HCT-116
  GI50: > 100 µM (inactive)
A549
  GI50: > 100 µM (inactive)
CAKI-1
  GI50: > 100 µM (inactive)
UACC-257
  GI50: > 100 µM (inactive)
NCI-H460
  GI50: > 100 µM (inactive)
HOP-92
  GI50: > 100 µM (inactive)
DMS-114
  GI50: > 100 µM (inactive)
KM12
  GI50: > 100 µM (inactive)
NCI-H226
  GI50: > 100 µM (inactive)
OVCAR-4
  GI50: > 100 µM (inactive)
HT-29
  GI50: > 100 µM (inactive)
SK-OV-3
  GI50: > 100 µM (inactive)
OVCAR-3
  GI50: > 100 µM (inactive)
786-0
  GI50: > 100 µM (inactive)
SF-295
  GI50: > 100 µM (inactive)
OVCAR-8
  GI50: > 100 µM (inactive)
RXF 393
  GI50: 68.2 µM (inactive)
M19-MEL
  GI50: > 100 µM (inactive)
UACC-62
  GI50: > 100 µM (inactive)
NCI-H23
  GI50: > 100 µM (inactive)
RXF 631
  GI50: > 100 µM (inactive)
K562
  GI50: > 100 µM (inactive)
U-251
  GI50: > 100 µM (inactive)
HL-60
  GI50: > 100 µM (inactive)
UO-31
  GI50: > 100 µM (inactive)
SK-MEL-2
  GI50: > 100 µM (inactive)
SW-620
  GI50: > 100 µM (inactive)
RPMI-8226
  GI50: > 100 µM (inactive)
DMS-273
  GI50: > 100 µM (inactive)
HOP-62
  GI50: > 100 µM (inactive)
OVCAR-5
  GI50: > 100 µM (inactive)
HCT-15
  GI50: > 100 µM
Malme-3M
  GI50: 13.9 µM (inactive)
EKVX
  GI50: > 100 µM (inactive)
SR
  GI50: > 100 µM (inactive)
LXFL 529
  GI50: > 100 µM (inactive)
NCI-H522
  GI50: > 100 µM (inactive)
SF-539
  GI50: > 100 µM (inactive)
IGROV-1
  GI50: > 100 µM (inactive)
DLD-1
  GI50: > 10 µM (inactive)
SNB-19
  GI50: > 100 µM (inactive)
COLO 205
  GI50: > 100 µM (inactive)
SNB-78
  GI50: > 100 µM (inactive)
